Values quoted from earlier work, collected in patent US11298346B2, “Methods for treatment of fibrotic diseases” (Beta Cat Pharmaceuticals, Inc., priority 2017, dated 2022).

Biological target: T1, TBL1 (Homo sapiens, UniProt O60907)
T1 sequence (O60907 1-577): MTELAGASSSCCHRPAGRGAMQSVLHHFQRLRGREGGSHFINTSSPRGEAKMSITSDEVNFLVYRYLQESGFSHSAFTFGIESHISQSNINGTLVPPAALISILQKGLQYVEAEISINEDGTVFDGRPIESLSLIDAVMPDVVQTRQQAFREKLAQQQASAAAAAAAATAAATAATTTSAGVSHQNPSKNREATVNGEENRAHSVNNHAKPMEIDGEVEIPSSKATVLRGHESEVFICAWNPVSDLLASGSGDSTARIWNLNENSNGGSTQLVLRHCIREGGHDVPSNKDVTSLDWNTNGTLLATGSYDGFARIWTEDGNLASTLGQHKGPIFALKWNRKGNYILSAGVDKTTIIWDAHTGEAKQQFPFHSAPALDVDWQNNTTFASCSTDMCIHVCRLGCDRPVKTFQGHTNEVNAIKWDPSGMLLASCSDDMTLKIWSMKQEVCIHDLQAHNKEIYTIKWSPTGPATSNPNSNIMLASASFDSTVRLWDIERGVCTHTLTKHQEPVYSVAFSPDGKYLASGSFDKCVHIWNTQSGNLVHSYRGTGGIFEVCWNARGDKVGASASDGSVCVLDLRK
Conditions: background statement, no method given; cited from earlier work

Tegavivint
interaction with TBL1: interact with TBL1
